This series concerns CCRIS mutagenicity, Ames/micronucleus/aberration tests. Briefly: CCRIS mutagenicity studies.
Where [1] appears, read: Test System: AMES SALMONELLA TYPHIMURIUM, Strain/Indicator: TA98, Metabolic Activation: NONE, Method: STANDARD PLATE.
Setting [2] is: Test System: AMES SALMONELLA TYPHIMURIUM, Strain/Indicator: TA98, Metabolic Activation: RAT, LIVER, S-9, AROCLOR 1254, Method: STANDARD PLATE.
Setting [3] is: Test System: AMES SALMONELLA TYPHIMURIUM, Strain/Indicator: TA100, Metabolic Activation: NONE, Method: STANDARD PLATE.
The mark [4] stands for this setting: Test System: AMES SALMONELLA TYPHIMURIUM, Strain/Indicator: TA100, Metabolic Activation: RAT, LIVER, S-9, AROCLOR 1254, Method: STANDARD PLATE.
Where [5] appears, read: Test System: AMES SALMONELLA TYPHIMURIUM, Strain/Indicator: TA1535, Metabolic Activation: NONE, Method: STANDARD PLATE.
Where [6] appears, read: Test System: AMES SALMONELLA TYPHIMURIUM, Strain/Indicator: TA1535, Metabolic Activation: RAT, LIVER, S-9, AROCLOR 1254, Method: STANDARD PLATE.

The source made the active and inactive calls. No rule for the calls is given here.

In the case of `FC(F)Cl`, the mutagenic call (End Point: IN VITRO CHROMOSOMAL ABERRATIONS, Test System: CHL CELLS, Metabolic Activation: NONE) is “inactive; negative”; the mutagenic call (End Point: IN VITRO CHROMOSOMAL ABERRATIONS, Test System: CHL CELLS, Metabolic Activation: RAT, LIVER, S-9, SODIUM PHENOBARBITAL AND 5,6-BENZOFLAVONE) was “inactive; negative”; the mutagenic call (Test System: AMES SALMONELLA TYPHIMURIUM, Strain/Indicator: TA98, Metabolic Activation: NONE, Method: GAS EXPOSURE) is “inactive; negative”; the mutagenic call (Test System: AMES SALMONELLA TYPHIMURIUM, Strain/Indicator: TA98, Metabolic Activation: RAT LIVER S-9, PHENOBARBITAL AND BETA-NAPHTHOFLAVONE (40%), Method: GAS EXPOSURE) was “inactive; negative”; the mutagenic call (Test System: AMES SALMONELLA TYPHIMURIUM, Strain/Indicator: TA98, Metabolic Activation: RAT, LIVER, S-9, PHENOBARBITAL AND 5,6-BENZOFLAVONE, Method: GAS EXPOSURE) is “inactive; negative”; the mutagenic call (Test System: AMES SALMONELLA TYPHIMURIUM, Strain/Indicator: TA100, Metabolic Activation: RAT LIVER S-9, PHENOBARBITAL AND BETA-NAPHTHOFLAVONE (40%), Method: GAS EXPOSURE) is “active; positive”. In addition, the mutagenic call runs as follows: (Test System: AMES SALMONELLA TYPHIMURIUM, Strain/Indicator: TA100, Metabolic Activation: RAT, LIVER, S-9, PHENOBARBITAL AND 5,6-BENZOFLAVONE, Method: GAS EXPOSURE) “active; positive”; (Test System: AMES SALMONELLA TYPHIMURIUM, Strain/Indicator: TA1535, Metabolic Activation: NONE, Method: GAS EXPOSURE) “active; positive”; (Test System: AMES SALMONELLA TYPHIMURIUM, Strain/Indicator: TA1535, Metabolic Activation: RAT LIVER S-9, PHENOBARBITAL AND BETA-NAPHTHOFLAVONE (40%), Method: GAS EXPOSURE) “active; positive”; (Test System: AMES SALMONELLA TYPHIMURIUM, Strain/Indicator: TA1535, Metabolic Activation: RAT, LIVER, S-9, AROCLOR 1254, Method: DESICCATOR) “active; positive”; (Test System: AMES SALMONELLA TYPHIMURIUM, Strain/Indicator: TA1535, Metabolic Activation: RAT, LIVER, S-9, PHENOBARBITAL AND 5,6-BENZOFLAVONE, Method: GAS EXPOSURE) “active; positive”; (Test System: AMES SALMONELLA TYPHIMURIUM, Strain/Indicator: TA1537, Metabolic Activation: NONE, Method: GAS EXPOSURE) “inactive; negative”. For the same compound, the mutagenic call was “inactive; negative” (Test System: AMES SALMONELLA TYPHIMURIUM, Strain/Indicator: TA1537, Metabolic Activation: RAT LIVER S-9, PHENOBARBITAL AND BETA-NAPHTHOFLAVONE (40%), Method: GAS EXPOSURE); “inactive; negative” (Test System: AMES SALMONELLA TYPHIMURIUM, Strain/Indicator: TA1537, Metabolic Activation: RAT, LIVER, S-9, PHENOBARBITAL AND 5,6-BENZOFLAVONE, Method: GAS EXPOSURE); “inactive; negative” (Test System: E. COLI, Strain/Indicator: WP2 UVRA, Metabolic Activation: NONE, Method: GAS EXPOSURE); “inactive; negative” (Test System: E. COLI, Strain/Indicator: WP2 UVRA, Metabolic Activation: RAT, LIVER, S-9, PHENOBARBITAL AND 5,6-BENZOFLAVONE, Method: GAS EXPOSURE); “inactive; negative” (Test System: E.COLI, Strain/Indicator: WP2UVRA, Metabolic Activation: NONE, Method: GAS EXPOSURE); “inactive; negative” (Test System: E.COLI, Strain/Indicator: WP2UVRA, Metabolic Activation: RAT LIVER S-9, PHENOBARBITAL AND BETA-NAPHTHOFLAVONE (40%), Method: GAS EXPOSURE).

Turning to `COc1cc(CCC(C)=O)ccc1O`, the mutagenic call is, setting by setting: under setting [1], “inactive; negative”; under setting [2], “inactive; negative”; under setting [3], “inactive; negative”; under setting [4], “inactive; negative”; under setting [5], “inactive; negative”; under setting [6], “inactive; negative”. The mutagenic call by setting is: (Test System: AMES SALMONELLA TYPHIMURIUM, Strain/Indicator: TA1538, Metabolic Activation: NONE, Method: STANDARD PLATE) “inactive; negative”; (Test System: AMES SALMONELLA TYPHIMURIUM, Strain/Indicator: TA1538, Metabolic Activation: RAT, LIVER, S-9, AROCLOR 1254, Method: STANDARD PLATE) “inactive; negative”; (Test System: E. COLI, Strain/Indicator: CM561 LEXA, Metabolic Activation: NONE, Method: STANDARD PLATE) “inactive; negative”; (Test System: E. COLI, Strain/Indicator: CM611 UVRA/LEXA, Metabolic Activation: NONE, Method: STANDARD PLATE) “inactive; negative”; (Test System: E. COLI, Strain/Indicator: WP2 UVRA, Metabolic Activation: NONE, Method: STANDARD PLATE) “inactive; negative”.

Regarding `O=S(=O)(c1ccc(Cl)cc1)c1cc(Cl)c(Cl)cc1Cl`, the mutagenic call (End Point: In vivo chromosomal aberrations, Test System: Bone marrow cells, Species: Rat, Strain/Sex: Wistar/Female, Route: Oral) is “inactive; negative”; the mutagenic call (Test System: AMES SALMONELLA TYPHIMURIUM, Strain/Indicator: TA97A, Metabolic Activation: NONE, Method: STANDARD PLATE) was “inactive; negative”; the mutagenic call (Test System: AMES SALMONELLA TYPHIMURIUM, Strain/Indicator: TA97A, Metabolic Activation: RAT, LIVER, S-9, AROCLOR 1254, Method: STANDARD PLATE) is “inactive; negative”; the mutagenic call under setting [1] is “inactive; negative”; the mutagenic call under setting [2] is “inactive; negative”; the mutagenic call under setting [3] is “inactive; negative”. The mutagenic call by setting is: under setting [4], “inactive; negative”; (Test System: AMES SALMONELLA TYPHIMURIUM, Strain/Indicator: TA102, Metabolic Activation: NONE, Method: STANDARD PLATE) “inactive; negative”; (Test System: AMES SALMONELLA TYPHIMURIUM, Strain/Indicator: TA102, Metabolic Activation: RAT, LIVER, S-9, AROCLOR 1254, Method: STANDARD PLATE) “inactive; negative”.

Take `CC(=O)Nc1ccc(Oc2ccccc2)cc1`: the mutagenic call runs as follows: under setting [3], “inactive; negative”; (Test System: AMES SALMONELLA TYPHIMURIUM, Strain/Indicator: TA100, Metabolic Activation: RAT, LIVER, S-9, KANECLOR 500, Method: STANDARD PLATE) “active; positive”.

On to `CC[C@H](C)OS(C)(=O)=O`, for which the mutagenic call was “active; positive” under setting [3]; “active; positive” under setting [5]; “active; positive” (Test System: CHINESE HAMSTER V-79, Strain/Indicator: V-79/6-THIOGUANINE, Metabolic Activation: NONE).

For the compound `C[C@]12CC[C@H](OC(=O)/C=C/c3cccc(N(CCCl)CCCl)c3)C[C@@H]1CC[C@@H]1[C@@H]2CC[C@]2(C)NC(=O)CC[C@@H]12`, the mutagenic call is, setting by setting: under setting [1], “inactive; negative”; under setting [2], “inactive; negative”; under setting [3], “inactive; negative”; under setting [4], “inactive; negative”; under setting [5], “inactive; negative”; under setting [6], “inactive; negative”. The mutagenic call (Test System: AMES SALMONELLA TYPHIMURIUM, Strain/Indicator: TA1537, Metabolic Activation: NONE, Method: STANDARD PLATE) was “inactive; negative” and the mutagenic call (Test System: AMES SALMONELLA TYPHIMURIUM, Strain/Indicator: TA1537, Metabolic Activation: RAT, LIVER, S-9, AROCLOR 1254, Method: STANDARD PLATE) is “inactive; negative”.

For `O=C(Cl)C(Cl)(Cl)Cl`, the mutagenic call by setting is: (Test System: AMES SALMONELLA TYPHIMURIUM, Strain/Indicator: TA100, Metabolic Activation: NONE, Method: BAG VAPORIZATION) “active; positive”; (Test System: AMES SALMONELLA TYPHIMURIUM, Strain/Indicator: TA100, Metabolic Activation: RAT, LIVER, S-9, AROCLOR 1254, Method: BAG VAPORIZATION) “active; positive”.

As to `Nc1ncnc2c1ncn2[C@@H]1O[C@H](CO)[C@@H](O)[C@@H]1O`, the mutagenic call (Test System: CHINESE HAMSTER OVARY, Strain/Indicator: CHO/6-THIOGUANINE, Metabolic Activation: NONE) is “active; positive”.

For the origin of these results see PubChem BioAssay AID1259407 (Chemical Carcinogenesis Research Information System (CCRIS), 2018).
